In experiment [1] the test system is E. coli (ATCC 25922). As to the kind of experiment: MIC (minimal inhibitory concentration) test, standard dilution method. The format is cell-based. The following applies: Escherichia coli, ATCC25922; E. coli ATCC 25922, standard dilution method. The text has this: For the strain, E. coli (ATCC 25922) was used, and for the antibiotic, Ceftriaxone (CJ, Seoul, Korea), to which E. coli has not developed resistance, was used for the sensitivity test.
First, each strain activated by two subcultures was used to estimate the antibiotic sensitivity by MIC (minimal inhibitory concentration) test. For the MIC test, a standard dilution method (Performance Standards for Antimicrobial Susceptibility Testing; Fifteenth Informational Supplement, Clinical and Laboratory Standard Institute, M100-S15, Vol. 25, No. 1, 2005) was used according to CLIS (The Clinical and Laboratory Standards Institute) guidelines.

Experiment [2] deals with E. coli (ATCC 25922). As to the kind of experiment: Plate count of E. coli in antibiotic-treated cultures. The following applies: 1st-3rd experiment.

≈ marks a conversion by molar mass, not a printed value.

`CO/N=C(\C(=O)N[C@@H]1C(=O)N2C(C(=O)O)=C(CSc3nc(=O)c(=O)[nH]n3C)CS[C@H]12)c1csc(N)n1` [Ceftriaxone]: the MIC in the experiment with E. coli (ATCC 25922) [1] worked out at 0.12 µg/mL (≈ 0.216 µM). For the same molecule, the “CFU (number of bacteria, plate count)” value amounted to 0 CFU with E. coli (ATCC 25922) [2] (EC-1-04: 1 MIC antibiotic, 4 hr); 0 CFU with E. coli (ATCC 25922) [2] (EC-1-06: 1 MIC antibiotic, 6 hr); 0 CFU with E. coli (ATCC 25922) [2] (EC-1-12: 1 MIC antibiotic, 12 hr); 0 CFU in the experiment with E. coli (ATCC 25922) [2] (EC-1-24: 1 MIC antibiotic, 24 hr); 0 CFU with E. coli (ATCC 25922) [2] (EC-2-02: 2 MIC antibiotic, 2 hr); 0 CFU in the experiment on E. coli (ATCC 25922) [2] (EC-2-04: 2 MIC antibiotic, 4 hr). Moreover, the “CFU (number of bacteria, plate count)” value is on record as 0 CFU with E. coli (ATCC 25922) [2] (EC-2-06: 2 MIC antibiotic, 6 hr); 0 CFU in the experiment on E. coli (ATCC 25922) [2] (EC-2-12: 2 MIC antibiotic, 12 hr); 0 CFU in the experiment with E. coli (ATCC 25922) [2] (EC-2-24: 2 MIC antibiotic, 24 hr).

The MIC is the lowest concentration that inhibits growth of the organism. A higher MIC goes with a less susceptible organism.

The record behind these values is patent US20100167956A1, “DNA CHIP FOR DETECTION OF ESCHERICHIA COLI” (MEDIGENES CO., LTD., priority 2007, published 2010).
